Calls of active or inactive are those of the source. No cut-off for these calls is given here. Positions of bridges follow the written chain, without caps; N, C: chain ends. Non-standard residues stand in square brackets, D forms with d. Residues, ends and D or L forms follow the SMILES beside them. 2Thi = N[C@@H](Cc1cccs1)C(=O)O
Key:
[1] = Inhibition of oxytocin receptor in conscious chicken assessed as inhibition of oxytocin-induced vasodepressor response; design: species or system Gallus gallus
[2] = species on record: Rattus norvegicus; assay: Antidiuretic activity in rat at 0.1 mg; format: functional, Urine
[3] = species on record: Rattus norvegicus; assay: Uterotonic potency in rat; format: functional
[4] = species on record: Rattus norvegicus; assay: Effect on pressor response in rat at 0.1 mg; format: functional
[5] = target: T1, Oxytocin receptor (Rattus norvegicus) (UniProt P70536); assay: Binding affinity to rat oxytocin receptor
T1 sequence (whole entry): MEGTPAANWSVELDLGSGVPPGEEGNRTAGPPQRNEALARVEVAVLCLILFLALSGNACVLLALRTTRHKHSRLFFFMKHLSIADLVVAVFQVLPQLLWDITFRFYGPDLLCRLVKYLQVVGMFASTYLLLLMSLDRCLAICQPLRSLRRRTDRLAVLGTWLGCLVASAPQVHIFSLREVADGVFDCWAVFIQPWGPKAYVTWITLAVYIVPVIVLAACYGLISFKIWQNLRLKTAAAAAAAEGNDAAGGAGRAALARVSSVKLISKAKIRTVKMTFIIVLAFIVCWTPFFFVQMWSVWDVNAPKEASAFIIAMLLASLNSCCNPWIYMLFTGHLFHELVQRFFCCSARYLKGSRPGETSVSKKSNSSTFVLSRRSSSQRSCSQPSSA

[6] = target: T1, Oxytocin receptor (Rattus norvegicus); assay: Intrinsic activity at rat oxytocin receptor relative to oxytocin

pA2 [1]: 7.44
Activity [5]: inactive
Intrinsic activity [6]: 64%
Structure (SMILES): CC[C@H](C)[C@@H]1NC(=O)[C@H](Cc2ccc(O)cc2)NC(=O)[C@@H](N)CSSC[C@@H](C(=O)N2CCC[C@H]2C(=O)N[C@@H](CC(C)C)C(=O)NCC(N)=O)NC(=O)[C@H](CC(N)=O)NC(=O)[C@H](Cc2cccs2)NC1=O (H-CYI[2Thi]NCPLG-NH2; disulfide 1-6)
Activity [2]: <0.05 U/mg
Activity [3]: 0.51 U/mg
Activity [4]: <0.05 U/mg
